This passage reports plasma stability results from PubChem BioAssay AID624420 (Sanford-Burnham Center for Chemical Genomics, 2012).

The data set concerns Human plasma stability, percent remaining. In words: compound stability in Homo sapiens plasma, ADME assay, biochemical, second set (AID 624420). The note with it: at 1 µM.

Turning to `CC[C@H]1CN2CCc3cc(OC)c(OC)cc3[C@@H]2C[C@@H]1C[C@H]1NCCc2cc(OC)c(OC)cc21`, the plasma stability is 91.5%.

Compound `N#Cc1ccccc1CSc1nc2ncc(Br)cc2[nH]1` returned a plasma stability of 95.4%.

`CC1CCCN(C(C(=O)Nc2ccc3c(c2)OCCO3)c2ccccc2)C1` (stereo not given) showed a plasma stability of 100%.

For the compound `O=C1C2CC=CCC2C(=O)N1c1n[nH]c(-c2ccccc2)n1` (stereo not given), the plasma stability was 69.8%.

The compound `CCOC(=O)C(C)Oc1cccc2c(=O)n(CC(=O)Nc3ccc4c(c3)OCCO4)ccc12` (stereo not given) yielded a plasma stability of 37.7%.

`O=c1[nH]c(SCc2ccc(Cl)cc2)nc2c1CCC2` yielded a plasma stability of 100%.

Take `Cc1ccc(S(=O)(=O)NCc2ccc(C(=O)NCCN(Cc3ccccc3)C(C)C)cc2)cc1`: the plasma stability came to 100%.

On to `O=C(CCNS(=O)(=O)c1cccc2nsnc12)N1CCN(c2ccccn2)CC1`, for which the plasma stability worked out at 91.2%.

As for `Cc1ccc(N2CCN(S(=O)(=O)N3CCCCC3)CC2)c(C)c1`, the plasma stability worked out at 100%.

For the compound `N#C/C(=C\c1ccc([N+](=O)[O-])o1)c1nc2ccccc2[nH]1`, the plasma stability turned out to be 16.9%.

For `O=C1NCCCc2c1oc1ccc(O)cc21`, the plasma stability is 95.7%.

Consider `CCOc1ccc(-c2nc(-c3ccncc3)no2)cc1OCC`, for which the plasma stability turned out to be 100%.

With `CN(C)c1oc(-c2ccc(OCc3ccc(Cl)cc3)cc2)nc1C#N`, the plasma stability was determined as 94.3%.

As for `Cc1cc(C(=O)CN2C(=O)CCC2=O)c(C)n1Cc1ccccc1`, the plasma stability was found to be 84%.

The compound `C/C=C/Cn1c(SCCCc2ccccc2)nc2c1c(=O)[nH]c(=O)n2C` came in with a plasma stability of 98.5%.

For `Cn1cnc([N+](=O)[O-])c1Sc1ncnc2nc[nH]c12`, the plasma stability was 83.2%.

In turn, `Cc1ccc(C)c(NS(=O)(=O)c2cc(C(=O)Nc3ccccc3-c3ccccc3)ccc2Cl)c1` gave a plasma stability of 100%.

Turning to `c1ccc2c(Nc3nnc(-c4ccncc4)s3)cccc2c1`, the plasma stability is 99.5%.

`NC(=O)C1CCN(c2nc(-c3ccc(Br)cc3)cs2)CC1` had a plasma stability of 96.8%.

`CCc1oc2ccccc2c1C(=O)c1cc(Br)c(O)c(Br)c1` registered a plasma stability of 94.6%.

In turn, `COc1ccc(OC)c(S(=O)(=O)Nc2cnc3ccccc3c2)c1` showed a plasma stability of 83%.

In the case of `Cc1ccc(C)c(OCCn2cc(C(=O)O)c3ccccc32)c1`, the plasma stability stood at 91.6%.

On to `O=C(O)c1ccc(N2C(=O)/C(=C/c3ccc(-c4ccc([N+](=O)[O-])cc4)o3)C=C2c2ccccc2)cc1`, for which the plasma stability worked out at 87.3%.

The compound `CCCOc1ccc(-c2nc(OC)c3ccccc3n2)cc1` returned a plasma stability of 100%.

Regarding `Brc1ccc2c(c1)CN1CCCC1=N2`, the plasma stability came to 100%.

`CCCc1nc2c(=O)n(C)c(=O)nc-2n(C)n1` came in with a plasma stability of 1.52%.

Take `O=S1(=O)Nc2c(ccc3cccnc23)-c2ccccc21`: the plasma stability stood at 100%.

`COc1ccc(C2CC(c3ccccc3)=NN2c2ccc(S(N)(=O)=O)cc2)cc1` (stereo not given) had a plasma stability of 79.5%.

The compound `CS(=O)(=O)c1ccc(C(=O)OCC(=O)NC23CC4CC(CC(C4)C2)C3)cc1[N+](=O)[O-]` displayed a plasma stability of 0.07%.

In turn, `COc1ccc(CSc2nc(C)cc(=O)[nH]2)cc1` yielded a plasma stability of 100%.

`CN(C)C1=C(Cl)C(=O)N(c2ccc(Cl)c(Cl)c2)C1=O` returned a plasma stability of 0.83%.

`O=C1CCCC2=C1C1(CCCC1)N=C(Nc1nc3ccccc3o1)N2` came in with a plasma stability of 100%.

With `COc1ccc(N(C(=O)CCl)C(C(=O)NCCc2ccccc2)c2cccs2)cc1Cl` (stereo not given), the plasma stability worked out at 68.2%.

`Cc1ccc(NS(=O)(=O)c2ccc3c(c2)CCC(=O)N3)cc1C` registered a plasma stability of 100%.

For the compound `Brc1cc2c(cc1C1Nc3ccccc3C3C=CCC31)OCO2` (stereo not given), the plasma stability is 97%.

In the case of `O=C(CSc1cccc2cccnc12)N1CCCC1`, the plasma stability was 99.3%.

As for `C=CCn1c(SCC(=O)c2ccc(O)c(O)c2)nnc1-c1ccccc1OC`, the plasma stability is 100%.

As to `O=C(O)c1ccccc1OCc1ccccc1Br`, the plasma stability turned out to be 76.7%.

As for `COc1ccc(S(=O)(=O)N2CCN(S(=O)(=O)c3ccc4c(c3)OCCO4)CC2)cc1`, the plasma stability stood at 96.4%.

`Cc1ccccc1N1CCN(c2ncnc3c2cnn3Cc2ccc(Cl)cc2)CC1`: the plasma stability amounted to 88.2%.

On to `Cc1ccc(C(=O)n2c3ccccc3c3ccccc32)cc1`, for which the plasma stability came out at 92%.

Compound `CCc1nnc(NC(=O)c2ccc(NS(=O)(=O)c3ccccc3)cc2)s1` gave a plasma stability of 100%.

As to `CCCC(=O)Nc1cccc(NC(=O)c2ccccc2Br)c1`, the plasma stability was determined as 87.8%.

The compound `Cc1cc(-c2nnc3n2CCCCC3)c(C)n1-c1ccccc1` had a plasma stability of 87.9%.

`COc1ccc(CNCc2cccc3ccccc23)cc1` came in with a plasma stability of 92.1%.

Turning to `COc1ccc(C2c3c(ncn(CCN4CCOCC4)c3=N)Oc3ccc4ccccc4c32)cc1OC` (stereo not given), the plasma stability came to 93.5%.

For `CCCN1CNc2c(c(=O)[nH]c(=S)n2CCc2ccc(OC)c(OC)c2)C1`, the plasma stability amounted to 85.1%.

`Cc1ccc(S(=O)(=O)n2c(N)nc3ccccc32)cc1` had a plasma stability of 95.8%.

Take `CCCN(CCC)CCNC(=O)C1CCN(Cc2nc(-c3ccc(Cl)cc3)oc2C)CC1`: the plasma stability was found to be 100%.

For `Cc1cc(C)n(-c2nc(NCCCO)c3c4c(sc3n2)CCCC4)n1`, the plasma stability amounted to 88.5%.

The compound `Cc1cc2c(s1)c1cnn(Cc3ccccc3F)c(=O)c1n2C` showed a plasma stability of 82.8%.

`Cc1ccc(S(=O)(=O)C(c2ccccc2)c2c(C)noc2C)cc1` (stereo not given) returned a plasma stability of 91.9%.

For the compound `O=C(c1ccccn1)N(Cc1cccs1)C1(C(=O)NC2CCCCC2)CCCCC1`, the plasma stability came out at 96.7%.

`O=C(COc1ccccc1Br)NCCc1nc2ccccc2[nH]1`: the plasma stability was determined as 88%.

As to `COc1ccccc1N(/N=C1\Sc2ccccc2C1=O)C(C)=O`, the plasma stability came out at 94.1%.

The compound `O=S(=O)(NC1CCCCC1N1CCOCC1)c1ccc(Cl)cc1` (stereo not given) gave a plasma stability of 100%.

With `CCOc1ccc(NC(=S)N2CCC(C(O)(c3ccccc3)c3ccccc3)CC2)cc1`, the plasma stability came out at 63.7%.

Consider `COc1cccc(-c2nc(-c3ccc(NC(=O)Cc4ccccc4OC)cc3)no2)c1`, for which the plasma stability was 100%.

Consider `COc1nc(-c2ccccc2)nnc1-c1ccccc1`, for which the plasma stability was determined as 100%.

Consider `O=C(COC(=O)C12CC3CC(CC(C3)C1)C2)NCc1ccco1`, for which the plasma stability worked out at 58.7%.

In turn, `Cn1nnnc1Sc1ncnc2scc(-c3ccccc3)c12` came in with a plasma stability of 76.8%.

The compound `CCN1CCN(c2nc3ccccc3nc2C(C#N)C(=O)OC2CCCCC2)CC1` (stereo not given) yielded a plasma stability of 100%.

In turn, `CC(C)C(=O)NC(c1ccco1)c1ccc2cccnc2c1O` (stereo not given) had a plasma stability of 100%.

On to `O=c1c2ccccc2[se]n1-c1ccccc1`, for which the plasma stability turned out to be 100%.

Compound `Cc1cc(C)nc(-n2nc(C)c(Sc3ccc(F)cc3)c2N)n1` had a plasma stability of 97%.

`CC(=O)c1ccc(N2CCN(S(=O)(=O)c3ccc4c(c3)CC(=O)N4)CC2)cc1` came in with a plasma stability of 80.6%.

With `O=C(O)CCC(NS(=O)(=O)c1ccc(-c2ccccc2)cc1)C(=O)O` (stereo not given), the plasma stability is 57%.

`COc1ccc(S(=O)(=O)n2nc(OC(=O)c3ccccc3)cc2N)cc1` registered a plasma stability of 0.3%.

For the compound `COC(=O)c1ccccc1NC(=O)c1ccc(F)cc1`, the plasma stability came to 80%.

As for `COc1ccc(OC)c(-c2nnc3n2N=C(c2ccc(OC)c(OC)c2)CS3)c1`, the plasma stability was 100%.

Turning to `O=[N+]([O-])c1ccc(CN2CCOCCOCCN(Cc3ccc([N+](=O)[O-])cc3)CCOCC2)cc1`, the plasma stability amounted to 98.3%.

For `COc1ccc(Sc2ccc(NC(=O)c3ccccc3Cl)cc2C#N)cc1`, the plasma stability stood at 91.9%.

`c1ccc(-c2nnc(N3CCOCC3)nc2-c2ccccc2)cc1` showed a plasma stability of 100%.

As for `c1ccc(CC2CCN(c3ncnc4sccc34)CC2)cc1`, the plasma stability turned out to be 100%.

Compound `CSc1nc(-c2ccc(C)cc2)nc(C(Cl)Cl)n1` came in with a plasma stability of 81.9%.

Compound `CCCn1ncc(CN2CCCC(C(=O)c3cccc(OC(C)C)c3)C2)c1C` (stereo not given) yielded a plasma stability of 100%.

`CN(C)c1nc(N)nc(CSc2nnnn2-c2cccc3ccccc23)n1` gave a plasma stability of 100%.

In turn, `Cc1ccc(NC(=O)CCC(=O)N/N=C/c2ccc([N+](=O)[O-])o2)cc1C` came in with a plasma stability of 67%.

The compound `Cc1nc(SCc2nc3ccccc3[nH]2)c2oc3ccccc3c2n1` came in with a plasma stability of 88%.

The compound `O=C(O)c1cccnc1SCCc1ccccc1` showed a plasma stability of 88.3%.

Compound `Cc1ccnc(NC(=O)CCCOc2cc(=O)n(C)c3ccccc23)c1` came in with a plasma stability of 100%.

`O=c1[nH]c2c(s1)C(c1cccnc1)C1C3CCC(C3)C1S2` (stereo not given) yielded a plasma stability of 86.8%.

`CCCc1cc(C(=O)N(C2CCCCC2)C2CCCCC2)no1` returned a plasma stability of 67.4%.

Take `Cc1ccc(-n2c(N)c(C#N)c(-c3ccccc3)c(C#N)c2=O)cc1`: the plasma stability was found to be 99.8%.

For the compound `Cc1cccc(-n2cnc3cc(C(=O)N4CCCCC4)ccc32)c1`, the plasma stability amounted to 87%.
